From US9034863B2, “Compositions and methods for inhibiting entry of a hepatic virus” (The Board of Trustees of the University of Illinois, priority 2008, dated 2015)

Tested on: HCVcc JFH-1
Assay: Chronic HCVcc infection in growing Huh7 cells, long-term treatment, RT-qPCR (FIG. 2)
Format: cell-based, Hepatitis C virus (HCV)
Settings: alone, throughout ~70 days of treatment
Description: Cultures of growing Huh7 cells were inoculated with HCVcc JFH-1 at an MOT of 0.01 FFU/cell. Infected cultures were maintained for an additional 10 days to allow HCV RNA to reach steady-state levels. FIG. 2A, Cultures were mock treated, treated with ezetimibe alone (30 μM), IFN-α (100 U/ml) alone, or ezetimibe (30 μM) plus IFN-α (100 U/ml) in combination. Treatments were maintained as cultures were passaged. FIG. 2B, After 70 days IFN-α or combination ezetimibe plus IFN-α treatment, treatment was either continued (open shapes) or discontinued (filled shapes). […] Results are graphed as means±s.e.m. for triplicate samples. The data presented are representative of two independent experiments.
For experiments in growing cells, Huh7 cells seeded at 1×10^6 cells in a T75 cell culture flask (Corning) were infected with JFH-1 HCVcc at a MOI of 0.01 FFU/cell and subsequently cultured for 10 days to allow HCV RNA to reach steady-state levels. On day 10 post-infection, cells were split 1:4 and re-plated into T25 culture flasks (Corning). Twenty four hours post seeding, individual flasks were mock-treated with cDMEM or treated with cDMEM containing IFN-α (100 U/ml), ezetimibe (30 μM) or a combination of both IFN-α (100 U/ml) and ezetimibe (30 μM). Throughout the course of the experiment, fresh media with treatments was replenished every two days and cells were trypsinized just before reaching confluence and re-plated at a dilution of 1:3 to maintain active cell growth. […]
Total cellular RNA was purified using an ABI PRISM™ 6100 Nucleic Acid PrepStation (Applied Biosystems), as per the manufacturer's instructions. […] HCV JFH-1 and human GAPDH RNA transcript levels were determined relative to a standard curve derived from serial dilutions of plasmid containing the JFH-1 HCV cDNA or the human GAPDH coding sequence, respectively. […]
To confirm HCV clearance, drug treatments were subsequently discontinued on day 70 and HCV RNA levels were monitored for an additional 30 days.

O=C1[C@H](CC[C@H](O)c2ccc(F)cc2)[C@@H](c2ccc(O)cc2)N1c1ccc(F)cc1 [ezetimibe, 1-(4-fluorophenyl)-(3R)-[3-(4-fluorophenyl)-(3S)-hydroxypropyl]-(45)-(4-hydroxyphenyl)-2-azetidinone]
intracellular HCV steady-state RNA levels: did not reduce
